How the values were obtained:
[1] = 3 week-old rats; cited from earlier work
[2] = healthy individuals; cited from earlier work
PPARα = target: T1, PPARα (Homo sapiens, UniProt Q07869); details: cited from earlier work
T1 sequence (Q07869 1-468): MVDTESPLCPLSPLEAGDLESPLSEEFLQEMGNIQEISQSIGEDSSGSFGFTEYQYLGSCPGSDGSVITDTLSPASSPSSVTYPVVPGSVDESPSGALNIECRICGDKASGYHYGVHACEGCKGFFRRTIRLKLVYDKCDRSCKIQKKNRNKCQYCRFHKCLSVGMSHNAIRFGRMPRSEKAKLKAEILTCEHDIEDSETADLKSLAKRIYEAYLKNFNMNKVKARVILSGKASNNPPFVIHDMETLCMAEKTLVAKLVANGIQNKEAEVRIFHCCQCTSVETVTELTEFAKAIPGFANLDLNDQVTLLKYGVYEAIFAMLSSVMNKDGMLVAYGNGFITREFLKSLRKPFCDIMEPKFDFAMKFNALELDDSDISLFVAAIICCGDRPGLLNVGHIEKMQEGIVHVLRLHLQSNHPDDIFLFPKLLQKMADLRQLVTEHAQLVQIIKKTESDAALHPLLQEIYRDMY

[3] = obese adults; cited from earlier work
[4] = human subjects; cited from earlier work
UN1 iPSC = test: Fatty acid supplementation at different steps of 4-step cardiac differentiation; format: cell-based, human; details: preliminary studies
Description: FIGS. 3A-B. Addition of OA+9CLA during differentiation impairs differentiation. (A) Light Microscopy of UN1 iPSC during 4-step cardiac differentiation (methods) supplemented with 100 µM oleic acid and 50 µM 9CLA at different steps. […] (B) Quantification of portion of complete well death (left) and portion of beating wells resulted by supplementation with 100 µM oleic acid and 50 µM 9CLA at different steps of the 4-step cardiac differentiation (n=24; methods).
(§1) Cells were seeded on Matrigel in mTeSR-1 medium and allowed to reach 80-90% confluence. Cardiac differentiation was conducted as previously described (Burridge, P. W. et al. Chemically defined generation of human cardiomyocytes. Nat Methods 11, 855-860, 2014). Briefly, a basal medium named CDM3 was used (RPMI-1640, 500 µg/mL recombinant human serum albumin, 213 µg/mL L-ascorbic acid 2-phosphate and 1% penicillin/streptomycin). At day zero of differentiation, the medium was replaced with CDM3 supplemented with 6 µmol/L CHIR99021 (Stemgent) for two days. At day two of the differentiation the culture-medium was switched to CDM3 medium supplemented with 2 µM Wnt-C59 (Selleckchem), for additional two days. From day four onward, cells were cultured with RPMI supplemented with B27-I (B27 supplement without Insulin; Gibco, USA). […]

adipocytes = details: short term exposure; cited from earlier work
human muscle cells = details: cited from earlier work
[5] = system: human embryonic stem cells; details: hESC on mouse fibroblast feeder layers; cited from earlier work
[6] = system: stem cell-derived cardiomyocytes; test: Seahorse MitoStress analysis of stem cell-derived cardiomyocytes; format: cell-based, human
Description: as §1
Mitochondrial function was measured using the Seahorse XF Cell Mito Stress Test Kit according to the manufacturer’s instructions (Agilent, Santa Clara, CA). […] The basal oxygen consumption rate (OCR) was measured for 30 minutes and then injected 1 µM oligomycin, a mitochondrial complex V inhibitor that blocks oxidative phosphorylation. […]

[7] = system: pluripotent stem cells derived cardiomyocytes; test: Immunofluorescence / cell shape analysis of stem cell-derived cardiomyocytes; format: cell-based, human; details: OA+9CLA+GW9662
Description: Cultured cells were fixed using 4% paraformaldehyde for 15 minutes at room temperature. Cells were then permeabilized in blocking solution (2% bovine serum albumin (BSA) and 0.25% Triton X-100 in PBS) for one hour at room temperature and incubated with primary antibodies (Table 13 below) for an additional hour. Following washes, cells were incubated with secondary antibodies (Table 14 below) for 1 hour at room temperature in blocking solution, washed twice in PBS and counterstained with 1 µg/ml Hoechest 33258 (Sigma Aldrich, USA) for 5 minutes. Imaging was performed on a Zeiss LSM 700 confocal microscope. Staining of actin was carried out simultaneously with secondary antibody incubation step by adding a 1:100 of Rhodamine-Phalloidin solution. Microscopic single cell and mitochondrial shape analysis was carried out using the CellProfiler software. Mitochondrial elongation was scored from 0 to 1, where 0 corresponds to a circle and 1 to a rectangle.
Cells were seeded on Matrigel in mTeSR-1 medium and allowed to reach 80-90% confluence. Cardiac differentiation was conducted as previously described (Burridge, P. W. et al. Chemically defined generation of human cardiomyocytes. Nat Methods 11, 855-860, 2014). Briefly, a basal medium named CDM3 was used (RPMI-1640, 500 µg/mL recombinant human serum albumin, 213 µg/mL L-ascorbic acid 2-phosphate and 1% penicillin/streptomycin). […]

## CCCCCC/C=C/C=C\CCCCCCCC(=O)O [9CLA, 9Z,11E-octadeca-9,11-dienoic acid]
[1]
  effect of treatment: did not have a beneficial effect
[2]
  low density lipoproteins (LDL): decreasing
PPARα
  activity at PPARα: agonist
[3]
  insulin sensitivity and lipid peroxidation: increasing

## conjugated linoleic acid [CLA]
[4]
  effect on endothelial function: negative effect
UN1 iPSC
  outcome of addition during cardiomyocyte differentiation: immature fibroblast-like cells that did not start beating
  outcome of addition on terminally differentiated beating cardiomyocytes: mature cardiomyocytes
adipocytes
  differentiation of mature adipocytes: delayed the differentiation of mature adipocytes
Human muscle cells
  myogenic gene expression: suppressed myogenic gene expression
[5]
  decrease of differentiation of stem cell colonies: 20%

## O=C(Nc1ccccc1)c1cc([N+](=O)[O-])ccc1Cl [GW9662]
[6]; all readouts (respiration, glycolysis, cell area, gene expression), 10 µM GW9662
  effect of GW9662 on the effect of postnatal lipids, in all cases: reversed
[6]; short-term exposure to GW9662 with OA+9CLA
  effect of GW9662 on fatty acid-induced respiration increase and glycolysis decrease: reversed both effects
[7]
  effect of PPARα/γ inhibition on OA+9CLA-induced cell area increase: reversed

— US20230295575A1, “METHODS OF INCREASING MATURATION OF HEART, PANCREATIC BETA-CELLS, AND NEURONS” (Yissum Research Development Company of the Hebrew …, priority 2020, published 2023)
